In patent publication US7183306B2, “Pyrazole derivatives” (Astellas Pharma Inc., priority 2002, dated 2007):

How the values were obtained:
COX-II = target: T1, COX-II (Homo sapiens, UniProt P35354); test: Whole blood assay for COX-II (LPS-induced PGE2 production); format: cell-based; conditions: LPS 24 hrs at 37° C., inhibition of PGE2 production
T1 construct: incubation of the blood with 10 μl of 5 mg/ml lipopolysaccharide for 24 hrs at 37° C. for induction of COX-II; from tissue; host or cells: heparinized fresh human whole blood from volunteers, LPS-stimulated
T1 sequence (P35354 18-604): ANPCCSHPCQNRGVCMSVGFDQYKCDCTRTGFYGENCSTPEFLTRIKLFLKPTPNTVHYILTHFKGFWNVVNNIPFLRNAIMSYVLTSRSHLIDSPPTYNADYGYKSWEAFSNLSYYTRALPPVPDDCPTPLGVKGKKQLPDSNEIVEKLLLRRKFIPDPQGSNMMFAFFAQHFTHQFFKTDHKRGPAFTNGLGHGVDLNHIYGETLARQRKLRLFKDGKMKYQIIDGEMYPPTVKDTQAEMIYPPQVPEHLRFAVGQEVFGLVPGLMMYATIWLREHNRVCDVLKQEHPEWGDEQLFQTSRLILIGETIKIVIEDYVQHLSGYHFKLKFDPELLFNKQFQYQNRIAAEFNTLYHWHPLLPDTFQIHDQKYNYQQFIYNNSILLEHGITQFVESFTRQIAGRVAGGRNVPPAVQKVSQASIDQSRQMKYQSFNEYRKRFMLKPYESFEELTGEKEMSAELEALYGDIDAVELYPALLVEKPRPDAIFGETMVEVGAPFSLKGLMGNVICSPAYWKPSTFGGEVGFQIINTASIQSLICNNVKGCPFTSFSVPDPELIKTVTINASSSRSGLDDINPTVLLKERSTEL
Experimental: Whole Blood Assay for COX-II
Fresh blood was collected in heparinized tubes by syringe from volunteers with consent. The subjects had no apparent inflammatory conditions and had not taken any medication for at least 7 days prior to blood collection.
500 μl aliquots of human whole blood were incubated with either 2 μl dimethyl sulfoxide vehicle or 2 μl of a test compound at final concentrations for 15 min at 37° C. This was followed by incubation of the blood with 10 μl of 5 mg/ml lipopolysaccharide for 24 hrs at 37° C. for induction of COX-II. Appropriate PBS treatments (no LPS) were used as blanks. At the end of the incubation, the blood was centrifuged at 6000×g for 5 min at 4° C. to obtain plasma. A 100 μl aliquot of plasma was mixed with 400 μl methanol for protein precipitation. The supernatant was obtained by centrifuging at 6000×g for 5 min at 4° C. and was assayed for prostaglandin E2 (PGE2) using a radioimmunoassay kit after conversion of PGE2 to its methyl oximate derivative according to the manufacturer's procedure.
For a test compound, the results were expressed as percent inhibition of PGE2 production relative to control incubations containing dimethyl sulfoxide vehicle. The data were analyzed by that a test compound at the indicated concentrations was changed log value and was applied simple linear regression. IC50 value was calculated by least squares method.

COX-I = target: T2, COX-I (Homo sapiens, UniProt P23219); test: Whole blood assay for COX-I (TXB2 production); format: cell-based
T2 construct: Fresh blood was collected by syringe without anticoagulants from volunteers with consent; from tissue; host or cells: fresh human whole blood from volunteers, allowed to clot
Experimental: [B] Inhibiting Activity Against COX-I and COX-II (Whole Blood Assay) (i) Test Metho: Whole Blood Assay for COX-I
Fresh blood was collected by syringe without anticoagulants from volunteers with consent. The subjects had no apparent inflammatory conditions and had not taken any medication for at least 7 days prior to blood collection.
500 μl Aliquots of human whole blood were immediately incubated with 2 μl of either dimethyl sulfoxide vehicle or a test compound at final concentrations for 1 hr at 37° C. to allow the blood to clot. Appropriate treatments (no incubation) were used as blanks. At the end of the incubation, 5 μl of 250 mM Indomethacin was added to stop the reaction. The blood was centrifuged at 6000×g for 5 min at 4° C. to obtain serum. A 100 μl aliquot of serum was mixed with 400 μl methanol for protein precipitation. The supernatant was obtained by centrifuging at 6000×g for 5 min at 4° C. and was assayed for TXB2 using an enzyme immunoassay kit according to the manufacturer's procedure. For a test compound, the results were expressed as percent inhibition of thromboxane B2(TXB2) production relative to control incubations containing dimethyl sulfoxide vehicle.
The data were analyzed by that a test compound at the indicated concentrations was changed log value and was applied simple linear regression. IC50 value was calculated by least squares method.

[1] = system: arthritic rats (adjuvant arthritis); test: Analgesic activity: effect on adjuvant arthritis in rats (Randall-Selitto pain threshold); format: in vivo, Lewis rats; conditions: Rattus norvegicus, single dose, pain threshold of left hind paw 2 hrs after administration, threshold pressure of treated vs non-treated rats, ratio of 1.5 considered effective, read-out: The coefficient of analgesic

T2 sequence (P23219 24-599): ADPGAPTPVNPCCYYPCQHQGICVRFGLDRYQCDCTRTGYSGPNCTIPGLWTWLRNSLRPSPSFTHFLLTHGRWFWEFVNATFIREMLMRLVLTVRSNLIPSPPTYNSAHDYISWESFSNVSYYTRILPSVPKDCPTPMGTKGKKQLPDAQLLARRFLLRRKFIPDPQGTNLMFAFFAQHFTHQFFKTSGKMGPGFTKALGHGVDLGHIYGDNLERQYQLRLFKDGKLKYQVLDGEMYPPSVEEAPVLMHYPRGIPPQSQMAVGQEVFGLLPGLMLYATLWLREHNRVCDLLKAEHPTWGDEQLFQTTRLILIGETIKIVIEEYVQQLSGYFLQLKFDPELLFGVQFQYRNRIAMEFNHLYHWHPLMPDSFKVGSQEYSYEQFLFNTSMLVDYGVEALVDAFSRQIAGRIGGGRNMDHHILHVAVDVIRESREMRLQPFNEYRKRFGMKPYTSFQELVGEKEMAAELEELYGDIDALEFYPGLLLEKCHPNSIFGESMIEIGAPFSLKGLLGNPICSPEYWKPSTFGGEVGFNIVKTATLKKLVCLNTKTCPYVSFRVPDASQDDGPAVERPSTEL

In the case of COc1ccc(-n2nc(C3CC3)cc2-c2ccc(OCCNC(N)=O)cc2)cc1 [Example 248], the IC50 (COX-II) is reported as > 0.1 µM, the IC50 (COX-I) is reported as < 0.01 µM and the response vs control in vivo at 3.2 mg/kg [1] is reported as ≥ 150%. It also gave a melting point of 150.8 to 151 °C.
With COc1ccc(-n2nc(Cl)cc2-c2ccc(OCCO)cc2)cc1 [Example 23, 2-{4-[3-Chloro-1-(4-methoxyphenyl)-1H-pyrazol-5-yl]-phenoxy}ethanol] the IC50 (COX-II) was > 0.1 µM, the IC50 (COX-I) was < 0.01 µM and the response vs control in vivo at 3.2 mg/kg [1] was > 150%. It also gave a melting point of 114.7 to 115.5 °C.
With COc1ccc(-n2nc(C(F)(F)F)cc2-c2ccc(OCCNC(N)=O)cc2)cc1 [Example 240] the IC50 (COX-II) was > 0.1 µM, the IC50 (COX-I) was < 0.01 µM and the response vs control in vivo at 3.2 mg/kg [1] was ≥ 150%.
With COc1ccc(C2N=C(C(F)F)C=C2c2ccc(OCCNC(N)=O)cc2)cc1 (centres unmarked) [Example 181] the IC50 (COX-II) was > 0.1 µM, the IC50 (COX-I) was < 0.01 µM and the response vs control in vivo at 3.2 mg/kg [1] was ≥ 150%.
For COc1ccc(-n2nc(Cl)cc2-c2ccc(OCCNC(N)=O)cc2)cc1 [Example 28, N-(2-{4-[3-Chloro-1-(4-methoxyphenyl)-1H-pyrazol-5-yl]-phenoxy}ethyl)urea], the IC50 (COX-II) was > 0.1 µM, the IC50 (COX-I) was < 0.01 µM and the response vs control in vivo at 3.2 mg/kg [1] was > 150%. The melting point was 144.8 to 145.4 °C.
With COc1ccc(-n2nc(C(F)F)cc2-c2ccc(OCCNC(N)=O)cc2)cn1 [Example 250] the IC50 (COX-II) was > 0.1 µM, the IC50 (COX-I) was < 0.01 µM and the response vs control in vivo at 3.2 mg/kg [1] was ≥ 150%. It also gave a melting point of 141.5 to 142.1 °C.
With COc1ccc(-n2nc(C(F)(F)F)cc2-c2ccc(OCCNC(C)=O)cc2)cc1 [Example 254] the IC50 (COX-II) was > 0.1 µM, the IC50 (COX-I) was < 0.01 µM and the response vs control in vivo at 3.2 mg/kg [1] was ≥ 150%. For the same compound, the melting point was 109.8 to 110.2 °C.
With COc1ccc(-n2nc(C(F)F)cc2-c2ccc(CNS(C)(=O)=O)cc2)cc1 [Example 61, N-{4-[3-(Difluoromethyl)-1-(4-methoxyphenyl)-1H-pyrazol-5-yl]benzyl}methanesulfonamide] the IC50 (COX-II) was > 0.1 µM, the IC50 (COX-I) was < 0.01 µM and the response vs control in vivo at 3.2 mg/kg [1] was > 150%.
